System: human promonocytic lymphoma cells (U937)
Test: Microculture indicator system (MIS), MTT growth inhibition assay with bivariate serial dilutions
Assay type: cell-based
Settings: for Potentiation of DNA damage by STSP as RA: U937, concentrations less than IC40, STSP as the TCI
Description: Microcultures of human promonocytic lymphoma cells (U937) (“the U937 cells”) originally obtained from the American Type Culture Collection (CRL 1593) and later grown by Dr. K. Zoon at the FDA in Bethesda, Md. were set up in a multiwell plate with serial two-fold dilutions of dThd in tissue culture growth medium (RPMI 1640 plus 10% Nurserum and antibiotics). The volume of medium per well was 100 μl and the cell number per well was about 1×10^5. The plate was incubated at 37° C. for 24 hr.
A dye, 3-[4,5-dimethylthiazol-2-yl]-2,5-diphenyl-tetrazolium bromide (MTT), was used as a chromogenic indicator of the metabolically active cell mass. Viable cells metabolize the dye and accumulate a reduced formazan product (blue color) which is solubilized for colorimetry. Mossman T, J. Immunol. Methods 5:55-63 (1983); Li L and Lau B H S, In Vitro Cell Dev. Biol. 29A:531-536 (1993). The MTT assay has been established as useful for measuring either growth inhibition or population killing. Plowman, supra. The MTT method is ideal for cells tested in suspension growth, and can also be used for some cells growing in monolayers. […] Alley, supra; Hofs, supra; Wilson J K et al., Br. J. Cancer 62:189-94 (1990); Plowman, supra.
Thirty μl of 0.5% MTT in phosphate buffered saline was added to each microculture well at the appropriate time. After incubation at 37° C. for 3 hr, 120 μl of an aqueous solution of 10 % SDS with 0.01 N HCl was added to release and dissolve formazan product. This was accomplished by overnight incubation of the plate at 37° C. After careful mixing of the microwell contents by placing the plates on an orbital shaker for 5 minutes the absorbencies were quantitated by spectrophotometry at 570 nm with a Ceres UV 900 HDI microwell plate reader (from Biotek Instruments Inc, Winooski, Vt. 05404-0998). Absorbance data was normalized to a blank well containing all reagents without cells and was collected semi-automatically.
Flat-bottom 96-well plates of tissue culture quality (Corning or Costar) were set up with two-fold serial dilutions of each agent to be tested, e.g., the RA and TCI, using a multichannel pipettor with adjustable volume, e.g., Costar or Rainin, to perform serial mixing. This set-up is diagrammed in FIG. 12. […] In each plate, a total of 59 wells then contained bivariate agent combinations, the bivariate serial dilutions.
Agents were serially diluted by serial mixing in two separate plates or series of wells, and then were combined prior to addition of a fixed volume and density of the U937 cells in a suspension calculated to deliver about 1×10^5 cells per well.
Cells were added after serial dilutions of the dThd had been dispensed. Cells were dispensed at about 10×10^4 cells per microwell to provide optimal sensitivity of detection of cell damage in subsequent calorimetric assays. […] The final volume of medium was 100 μl/well. The plates were further incubated at 37° C. for a total duration of 18-24 h. The dye MTT was used as a chromogenic indicator of the residual and metabolically active cell mass. (Described in Example 1).
In this MTT assay, normalized absorbance data was collected semi-automatically from each microculture well with a Ceres UV 900 HD1 plate reader, from Biotek Instruments Inc., Winooski, V T 05404-0998, stored in an EIA file under the Ceres 900 program, transferred in comma delimited format to a floppy diskette, and imported into a spread sheet program (Borland Quattro Pro) for data manipulations.

[1] = U937, total 17 H, STSP 17 H, dGuo 0 H, dGuo 0.01 mM (ninth dilution, c19), STSP nM by row: r7 100, r8 50, r9 25, r10 12.5, r11 6.25, r12 3.13, r13-r14 0
[2] = U937, total 17 H, STSP 17 H, dGuo 0 H, dGuo 0.01 mM (tenth dilution, c21), STSP nM by row: r7 100, r8 50, r9 25, r10 12.5, r11 6.25, r12 3.13, r13-r14 0
[3] = U937, total 17 H, STSP 17 H, dGuo 0 H, dGuo 0.02 mM, STSP nM by row: r7 100, r8 50, r9 25, r10 12.5, r11 6.25, r12 3.13, r13-r14 0
[4] = U937, total 17 H, STSP 17 H, dGuo 0 H, dGuo 0.06 mM, STSP nM by row: r7 100, r8 50, r9 25, r10 12.5, r11 6.25, r12 3.13, r13-r14 0
[5] = U937, total 17 H, STSP 17 H, dGuo 0 H, dGuo 0.09 mM, STSP nM by row: r7 100, r8 50, r9 25, r10 12.5, r11 6.25, r12 3.13, r13-r14 0
[6] = U937, total 17 H, STSP 17 H, dGuo 0 H, dGuo 3.00 mM, STSP nM by row: r7 100, r8 50, r9 25, r10 12.5, r11 6.25, r12 3.13, r13-r14 0

## COC(=O)[C@@]1(O)C[C@H]2O[C@]1(C)n1c3ccccc3c3c4c(c5c6ccccc6n2c5c31)C(=O)NC4 [K252a]
U937, K252a only 15 H, K252a uM by row: r7 2, r8 1, r9 0.5, r10 0.25, r11 0.13, r12 0.06
  combined results ratio, K252a only: 1.0
U937, K252a only 20 H, K252a nM by row: r7 625, r8 313, r9 156, r10 78.1, r11 39.1, r12 19.5
  combined results ratio, K252a only: 1.0

## CN(Cc1cnc2nc(N)nc(N)c2n1)c1ccc(C(=O)N[C@@H](CCC(=O)O)C(=O)O)cc1 [MTX, methotrexate]
Homo sapiens, U-937, U937, total 20 H, STSP 16 H, MTX 4 H, MTX 4 nM, STSP nM: 200, 100, 50, 25, 12.5, 6.25, 0
  inhibition at 0.004 µM: 20%
Homo sapiens, U-937, U937, total 20 H, STSP 16 H, MTX 4 H, MTX 8 nM, STSP nM: 200, 100, 50, 25, 12.5, 6.25, 0
  inhibition at 0.008 µM: 38%
Homo sapiens, U-937, U937, total 20 H, STSP 16 H, MTX 4 H, MTX 16 nM, STSP nM: 200, 100, 50, 25, 12.5, 6.25, 0
  inhibition at […]: 48%
Homo sapiens, U-937, U937, total 20 H, STSP 16 H, MTX 4 H, MTX 31 nM, STSP nM: 200, 100, 50, 25, 12.5, 6.25, 0
  inhibition at […]: 43%
Homo sapiens, U-937, U937, total 20 H, STSP 16 H, MTX 4 H, MTX 63 nM, STSP nM: 200, 100, 50, 25, 12.5, 6.25, 0
  inhibition at […]: 47%
Homo sapiens, U-937, U937, total 20 H, STSP 16 H, MTX 4 H, MTX 125 nM, STSP nM: 200, 100, 50, 25, 12.5, 6.25, 0
  inhibition at 0.125 µM: 52%
Homo sapiens, U-937, U937, total 20 H, STSP 16 H, MTX 4 H, MTX 250 nM, STSP nM: 200, 100, 50, 25, 12.5, 6.25, 0
  inhibition at […]: 57%
Homo sapiens, U-937, U937, total 20 H, STSP 16 H, MTX 4 H, MTX 500 nM, STSP nM: 200, 100, 50, 25, 12.5, 6.25, 0
  inhibition at 0.5 µM: 62%
Homo sapiens, U-937, U937, total 20 H, STSP 16 H, MTX 4 H, MTX 1000 nM, STSP nM: 200, 100, 50, 25, 12.5, 6.25, 0
  inhibition at 1 µM: 61%
  Potentiation of DNA damage by STSP as RA: proved successful in potentiating DNA damage by STSP
U937, total 20 H, STSP 16 H, MTX 4 H, MTX 4 nM, STSP nM: 200, 100, 50, 25, 12.5, 6.25, 0
  Combined results ratio: 1.0
U937, total 20 H, STSP 16 H, MTX 4 H, MTX 8 nM, STSP nM: 200, 100, 50, 25, 12.5, 6.25, 0
  Combined results ratio: 1.0
U937, total 20 H, STSP 16 H, MTX 4 H, MTX 16 nM, STSP nM: 200, 100, 50, 25, 12.5, 6.25, 0
  Combined results ratio: 1.0
U937, total 20 H, STSP 16 H, MTX 4 H, MTX 31 nM, STSP nM: 200, 100, 50, 25, 12.5, 6.25, 0
  Combined results ratio: 1.0
U937, total 20 H, STSP 16 H, MTX 4 H, MTX 63 nM, STSP nM: 200, 100, 50, 25, 12.5, 6.25, 0
  Combined results ratio: 1.0
U937, total 20 H, STSP 16 H, MTX 4 H, MTX 125 nM, STSP nM: 200, 100, 50, 25, 12.5, 6.25, 0
  Combined results ratio: 1.0
U937, total 20 H, STSP 16 H, MTX 4 H, MTX 250 nM, STSP nM: 200, 100, 50, 25, 12.5, 6.25, 0
  Combined results ratio: 1.0
U937, total 20 H, STSP 16 H, MTX 4 H, MTX 500 nM, STSP nM: 200, 100, 50, 25, 12.5, 6.25, 0
  Combined results ratio: 1.0
U937, total 20 H, STSP 16 H, MTX 4 H, MTX 1000 nM, STSP nM: 200, 100, 50, 25, 12.5, 6.25, 0
  Combined results ratio: 1.0

## Nc1ccn([C@@H]2O[C@H](CO)[C@@H](O)[C@@H]2O)c(=O)n1 [ara-C, 1-β-D-arabinofuranosylcytosine]
  Potentiation of DNA damage by STSP as RA: proved successful in potentiating DNA damage by STSP

## Cn1c(=O)c2c(ncn2C)n(C)c1=O [caffeine]
Caffeine 0.1-2 mM
  Interaction with STSP (differential O/S plot): strongly antagonized the action of STSP

## N.N.[Cl][Pt][Cl] [cisplatin]
U937, Cisplatin only 16 H, Cisplatin uM by row: r7 *****, r8 *****, r9 *****, r10 5.00, r11 2.50, r12 1.25
  combined results ratio, Cisplatin only: 1.0
U937, total 19 H, cisplatin 16 H, no STSP, cisplatin uM by row: r7 80, r8 40, r9 20, r10 10, r11 5, r12 2.5
  combined results ratio, Cisplatin only: 1.0

## Nc1nc2c(ncn2[C@H]2C[C@H](O)[C@@H](CO)O2)c(=O)[nH]1 [dGuo]
U937, dGuo 0.02 mM for 0 H, STSP for 17 H, total 17 H, STSP nM: 100,50,25,12.5,6.25,3.13, r13 dGuo alone
  Combined results ratio (CRR), dGuo 0.02 mM: 1.0
U937, dGuo 0.02 mM for 0 H, STSP for 17 H, total 17 H, STSP nM: 100,50,25,12.5,6.25,3.13, r14 dGuo alone
  Growth inhibition (MTT), dGuo 0.02 mM: 10%
U937, dGuo 0.06 mM for 0 H, STSP for 17 H, total 17 H, STSP nM: 100,50,25,12.5,6.25,3.13, r13 dGuo alone
  Combined results ratio (CRR), dGuo 0.06 mM: 1.0
U937, dGuo 0.06 mM for 0 H, STSP for 17 H, total 17 H, STSP nM: 100,50,25,12.5,6.25,3.13, r14 dGuo alone
  Growth inhibition (MTT), dGuo 0.06 mM: 25%
U937, dGuo 0.09 mM for 0 H, STSP for 17 H, total 17 H, STSP nM: 100,50,25,12.5,6.25,3.13, r13 dGuo alone
  Combined results ratio (CRR), dGuo 0.09 mM: 1.0
U937, dGuo 0.09 mM for 0 H, STSP for 17 H, total 17 H, STSP nM: 100,50,25,12.5,6.25,3.13, r14 dGuo alone
  Growth inhibition (MTT), dGuo 0.09 mM: 57%
U937, dGuo 3.00 mM for 0 H, STSP for 17 H, total 17 H, STSP nM: 100,50,25,12.5,6.25,3.13, r13 dGuo alone
  Combined results ratio (CRR), dGuo 3.00 mM: 1.0
U937, dGuo 3.00 mM for 0 H, STSP for 17 H, total 17 H, STSP nM: 100,50,25,12.5,6.25,3.13, r14 dGuo alone
  Growth inhibition (MTT), dGuo 3.00 mM: 93%
U937, dGuo […] for 0 H, STSP for 17 H, total 17 H, STSP nM: 100,50,25,12.5,6.25,3.13, r13 dGuo alone
  Combined results ratio (CRR), dGuo […]: 1.0
[1]
  Combined results ratio: 1.0
  Growth inhibition (MTT): 2%
[2]
  Combined results ratio: 1.0
  Growth inhibition (MTT): 2%
[3]
  Combined results ratio: 1.0
  Growth inhibition (MTT): 10%
[4]
  Combined results ratio: 1.0
  Growth inhibition (MTT): 25%
[5]
  Combined results ratio: 1.0
  Growth inhibition (MTT): 57%
[6]
  Combined results ratio: 1.0
  Growth inhibition (MTT): 93%

## O=c1[nH]c(=O)n([C@H]2C[C@H](O)[C@@H](CO)O2)cc1F [floxuridine]
  Potentiation of DNA damage by STSP as RA: proved successful in potentiating DNA damage by STSP
